Experimental data reported in US8452543B2, “High throughput screening for antimicrobial dosing regimens” (priority 2005, dated 2013).
≈ marks a conversion by molar mass, not a printed value. Where two headings read alike, the source gives them in different places.

Columns and labels:
P. aeruginosa ATCC 27853 = assay: MIC/MBC, modified macrobroth dilution; assay type: cell-based, Pseudomonas aeruginosa
Experimental: The final concentration of bacteria in each macrobroth dilution tube was approximately 5×10^5 cfu/ml of Ca-MHB. Serial twofold dilutions of meropenem were used. […] Samples (50 μl) from clear tubes and the cloudy tube with the highest drug concentration were plated on Mueller-Hinton agar (MHA) plates (Hardy Diagnostics, Santa Maria, Calif.). […] Drug carry-over effect was assessed by visual inspection of the distribution of colonies on media plates. The studies were conducted in duplicate and repeated at least once on a separate day.

Pseudomonas aeruginosa = assay type: cell-based
Experimental: The computer simulations were compared to experimental data from an in-vitro hollow fiber infection model with similar antimicrobial agent exposures (20). Basically the drug was injected directly into the central reservoir to achieve the peak concentration desired. Fresh (drug-free) growth medium (Ca-MHB) was continuously infused from the diluent reservoir into the central reservoir to dilute the drug in order to simulate drug elimination in humans. An equal volume of meropenem-containing medium was removed from the central reservoir concurrently to maintain an isovolumetric system. […]
Various elimination half-lives (1-3 hours) of meropenem were simulated and were validated subsequently in the infection models. Serial samples were obtained at baseline and daily (pre-dose) in duplicate from each hollow fiber system, for quantitative culture to define the effect of various drug exposures on the total bacterial population and on selection of resistant bacterial sub-populations.
Prior to culturing the bacteria quantitatively, the bacterial samples were centrifuged at 15,000 G for 15 minutes and reconstituted with sterile normal saline in order to minimize drug carry-over effect. Total bacterial populations were quantified by spiral plating 10× serial dilutions of the samples (50 μl) onto drug-free Mueller-Hinton agar (MHA) plates (Hardy Diagnostics, Santa Maria, Calif.). […]

[1] = system: amikacin resistant A. baumannii isolates; assay: Resistance confirmation, repeat susceptibility testing, amikacin; assay type: cell-based, Acinetobacter baumannii; settings: amikacin resistant isolates
Experimental: The media plates were incubated at 35° C. for up to 24 (total population) and 72 hours (sub-populations with reduced susceptibility), then bacterial density from each sample was enumerated visually. The theoretical lower limit of detection was 400 CFU/ml.

[2] = system: P. aeruginosa ATCC 27853 and its isogenic OprD− mutant (1000:1); assay: Murine pneumonia model; assay type: in vivo, mice
Experimental: Female Swiss-Webster mice (22-26 g) were used; all mice were cared for in accordance to the highest humane and ethical standards, as approved by the Institutional Animal Care and Use Committee (IACUC). The animals were housed in isolation boxes to decrease the risk of infection from extraneous pathogens. They received food and water ad libitum. The animals were rendered neutropenic by 2 intra-peritoneal injections of cyclophosphamide (Sigma, St. Louis, Mo.) 150 mg/kg on day −4 and 100 mg/kg on day −1 prior to infection; previous studies have shown that this regimen would produce neutropenia for 5 days (13, 16). Transient nephrotoxicity was induced by 1 intra-peritoneal injection of uranyl nitrate (5 mg/kg on day −2), which has been previously shown to produce a significant stable reduction in renal function for at least 7 days (21).
Each mouse was anesthetized with a single intra-peritoneal dose ([…]) of tribromoethanol (Sigma, St. Louis, Mo.), and was intubated under laryngoscopic guidance. For each mouse, the correct placement of endotracheal tube was verified by placing a cooled mirror surface close to the exit to observe water vapor condensation. A few colonies of the bacterial isolates were inoculated into Ca-MHB and incubated at 35° C. until they reached late log phase growth. The bacterial suspension was diluted to the desired concentration of approximately 10^8 CFU/ml based on absorbance at 630 nm; a mixture of wild-type and its isogenic OprD^− mutant in a 1000:1 ratio was used to mimic a heterogeneous bacterial population. The inocula (10 μl) were directly inoculated into the trachea of the anesthetized animals.
Two hours after infection, 3 mice were sacrificed by CO2 asphyxiation to ascertain the bacterial burden in lung tissues. The lung tissues were aseptically collected and homogenized in 10 ml of sterile saline. The homogenates were centrifuged at 6000×G for 15 minutes. The supernatant was discarded and the pellets were re-suspended in normal saline to 10× their original volumes in order to minimize drug carry-over effect. They were then diluted ten-fold serially and quantitatively cultured on Mueller-Hinton agar (MHA) plates (Hardy Diagnostics, Santa Maria, Calif.) and MHA plates supplemented with meropenem at 3× the MIC of the wild-type isolate. The media plates were incubated at 35° C. in a humidified incubator for up to 24 hours (for MHA plates) and 72 hours (for meropenem-supplemented MHA plates) before reading and the bacterial burden in lung tissues enumerated.
The remaining mice were observed every 8 hours for 4 days, with or without meropenem (400 mg/kg) given intra-peritoneally every 8 hours (10 mice in each group). Total bacterial burden and those with reduced susceptibility in animal lung tissues were determined in a similar manner upon death or at the end of the experiment. Susceptibility testing was repeated on representative isolates recovered from meropenem-supplemented plates to confirm the presence of resistance.

[3] = 10 mice received meropenem treatment

C[C@@H](O)[C@H]1C(=O)N2C(C(=O)O)=C(S[C@@H]3CN[C@H](C(=O)N(C)C)C3)[C@H](C)[C@H]12 [meropenem]
MBC (P. aeruginosa ATCC 27853; Pseudomonas aeruginosa, ATCC27853, P. aeruginosa isolate, read-out: MBC): 1 µg/mL (≈ 2.61 µM)
MIC (P. aeruginosa ATCC 27853; Pseudomonas aeruginosa, ATCC27853, P. aeruginosa isolate, read-out: MIC): 1 µg/mL (≈ 2.61 µM)
MIC (P. aeruginosa ATCC 27853; wild-type isolate used in vivo): 1 µg/mL (≈ 2.61 µM)
microbial response (Pseudomonas aeruginosa): associated with regrowth
Cmin/MIC necessary to suppress the emergence of resistance (Pseudomonas aeruginosa; Cmax 64 μg/ml, dosing every 8 hours for 5 days): ≥ 4
cross-resistance [1]: not
survival over 4 days ([2]; 400 mg/kg intra-peritoneally every 8 hours): 100%
animals with complete replacement of bacterial population by the OprD− mutant in lung tissue ([2]; 400 mg/kg intra-peritoneally every 8 hours, 96 hours): 30%
mice in which resistance emergence was found [2, 3]: 3 mice
mice that survived up to 96 hours [2, 3]: 10 mice
MIC of isolates recovered from meropenem-supplemented MHA plates compared to the OprD− mutant ([2]; repeat susceptibility testing): did not reveal a substantial increase in MIC
